Measured values taken from patent US20230174584A1, “Antibiotic Compounds” (priority 2019, published 2023).
≈ marks a conversion by molar mass, not a printed value.

Key:
E. faecium E0072 = assay: MIC assay; type: cell-based, Enterococcus faecium; conditions: E. faecium E0072, VanA
Procedure, shortened: (§1)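 Twofold serial dilutions, biological triplicates, combined with an equal volume of bacterial suspension (10^6 CFU/mL) in TSB/0.002% polysorbate 80. Incubation lasted 24 h at 37 °C, shaking at 600 rpm. Median of replicates gives MIC.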

E. faecium E0333 = assay: MIC assay; type: cell-based, Enterococcus faecium; conditions: E. faecium E0333, VanA
Procedure, shortened: as §1

E. faecium E1763 = assay: MIC assay; type: cell-based, Enterococcus faecium; conditions: E. faecium E1763, VanA
Procedure, shortened: as §1

E. faecium E7319 = assay: MIC assay; type: cell-based, Enterococcus faecium; conditions: E. faecium E7319, VanA
Procedure, shortened: as §1

E. faecium E8237 = assay: MIC assay; type: cell-based, Enterococcus faecium; conditions: E. faecium E8237, VanA
Procedure, shortened: as §1

E. faecium E980 = assay: MIC assay; type: cell-based, Enterococcus faecium; conditions: E. faecium E980 VSE
Procedure, shortened: as §1

E. faecalis E7406 = assay: microbe, parasite or virus in culture; type: cell-based, Enterococcus faecalis; conditions: E. faecalis E7406 VRE (VanB)
Procedure, shortened: as §1

E. faecalis E7604 = assay: microbe, parasite or virus in culture; type: cell-based, Enterococcus faecalis; conditions: E. faecalis E7604 VRE (vanB)
Procedure, shortened: as §1

[1] = tested on: Escherichia coli ATCC 25922; assay: MIC assay; type: cell-based
Procedure, shortened: as §1

Escherichia coli W3110 = assay: MIC assay; type: cell-based
Procedure, shortened: as §1

[2] = tested on: Klebsiella pneumoniae ATCC 13883; assay: MIC assay; type: cell-based
Procedure, shortened: as §1

[3] = tested on: Klebsiella pneumoniae JS265; assay: MIC assay; type: cell-based
Procedure, shortened: as §1

S. pneumoniae 153 = assay: MIC assay; type: cell-based; conditions: S. pneumoniae 153; TSB+0.002% p80+5% lysed horse blood
Procedure, shortened: as §1

E. faecium E0341 = assay: MIC assay; type: cell-based, Enterococcus faecium; conditions: E. faecium E0341, VanA
S. aureus ATCC29123 = assay: Lipid II antagonization assay; type: cell-based, Staphylococcus aureus; conditions: for visible bacterial growth with lipid II / visible bacterial growth without lipid II: 8×MIC of test compound, 24 h; for visible bacterial growth with lipid II: 5-fold molar excess of lipid II; for bacterial growth after co-incubation with lipid II: 8×MIC; for visible bacterial growth with lipid II: key: − means no visible growth; + means visible growth; for visible bacterial growth without lipid II: key: − means no visible growth; + means visible growth
Procedure: Lipid II in chloroform was added in the appropriate amount (5-fold molar excess compared to test antibiotics) to a 96-well plate and the chloroform was allowed to evaporate. […] Of these dilutions, 50 μL was mixed with the 5-fold molar excess of pure lipid II in triplicates in the plate as well as added to the plate in triplicates without lipid II present. S. aureus ATCC29123 colonies were suspended in TSB with 0.002% p80 by direct colony suspension to an optical density that reached a level equivalent to the 0.5 McFarlan standard. […] The samples were incubated at 37° C. for 24 h with constant shaking (600 rpm) and inspected for visible bacterial growth. Positive growth control consisted of wells with bacterial suspension and without antibiotic or lipid II. Negative growth control consisted of solely media without bacterial suspension, antibiotic or lipid II.
In the antagonization assay, lipid II is co-incubated with the test antibiotics in the presence of bacterial culture. When lipid II binds the glycopeptides, the binding of these antibiotics to their target in the growing bacterial culture is antagonized. This ultimately results in diminished activity of the antibiotics and bacterial growth which normally would not be visible (at 8×MIC) becomes visible. Therefore, this assay could be used to determine if part of the mechanism of action of our compounds involves binding to lipid II.

Compound | MIC (E. faecium E0072) | MIC (E. faecium E0333) | MIC (E. faecium E1763) | MIC (E. faecium E7319) | MIC (E. faecium E8237) | MIC (E. faecium E980) | MIC (E. faecalis E7406) | MIC (E. faecalis E7604) | MIC [1] | MIC (Escherichia coli W3110) | MIC [2] | MIC [3] | MIC (S. pneumoniae 153) | MIC (E. faecium E0341) | visible bacterial growth with lipid II (S. aureus ATCC29123) | visible bacterial growth without lipid II (S. aureus ATCC29123) | bacterial growth after co-incubation with lipid II (S. aureus ATCC29123)
CCCCCCCNC(N)=Nc1ccc(CN[C@@]2(C)C[C@H](O[C@H]3[C@H](Oc4c5cc6cc4Oc4ccc(cc4Cl)[C@@H](O)[C@@H](NC(=O)[C@@H](CC(C)C)NC)C(=O)N[C@@H](CC(N)=O)C(=O)N[C@H]6C(=O)N[C@H]4C(=O)N[C@H](C(=O)N[C@H](C(=O)O)c6cc(O)cc(O)c6-c6cc4ccc6O)[C@H](O)c4ccc(c(Cl)c4)O5)O[C@H](CO)[C@@H](O)[C@@H]3O)O[C@@H](C)[C@H]2O)cc1 [Compound 5] | 0.25 µg/mL (≈ 0.148 µM) | 8 µg/mL (≈ 4.72 µM) | 0.25 µg/mL (≈ 0.148 µM) | 0.5 µg/mL (≈ 0.295 µM) | 8 µg/mL (≈ 4.72 µM) | ≤0.007812 µg/mL | 0.01562 µg/mL (≈ 0.00922 µM) | 0.016 µg/mL (≈ 0.00944 µM) | >128 µg/mL | >128 µg/mL | >128 µg/mL | >128 µg/mL | ≤0.008 µg/mL | 8 µg/mL (≈ 4.72 µM) | + | − | Bacterial growth was visible
CN[C@H](CC(C)C)C(=O)N[C@H]1C(=O)N[C@@H](CC(N)=O)C(=O)N[C@H]2C(=O)N[C@H]3C(=O)N[C@H](C(=O)N[C@H](C(=O)O)c4cc(O)cc(O)c4-c4cc3ccc4O)[C@H](O)c3ccc(c(Cl)c3)Oc3cc2cc(c3O[C@@H]2O[C@H](CO)[C@@H](O)[C@H](O)[C@H]2O[C@H]2C[C@](C)(NCc3ccc(N=C(N)NC/C=C(\C)CCC=C(C)C)cc3)[C@H](O)[C@H](C)O2)Oc2ccc(cc2Cl)[C@H]1O [Compound 14] | 0.5 µg/mL (≈ 0.289 µM) | 8 µg/mL (≈ 4.62 µM) | 0.125 µg/mL (≈ 0.0721 µM) | 0.5 µg/mL (≈ 0.289 µM) | 4 µg/mL (≈ 2.31 µM) | ≤0.007812 µg/mL | ≤0.007812 µg/mL | ≤0.008 µg/mL | >128 µg/mL | >128 µg/mL | >128 µg/mL | >128 µg/mL | ≤0.008 µg/mL | 4 µg/mL (≈ 2.31 µM) | + | − | Bacterial growth was visible
CCCCCCCCCNC(N)=Nc1ccc(CN[C@@]2(C)C[C@H](O[C@H]3[C@H](Oc4c5cc6cc4Oc4ccc(cc4Cl)[C@@H](O)[C@@H](NC(=O)[C@@H](CC(C)C)NC)C(=O)N[C@@H](CC(N)=O)C(=O)N[C@H]6C(=O)N[C@H]4C(=O)N[C@H](C(=O)N[C@H](C(=O)O)c6cc(O)cc(O)c6-c6cc4ccc6O)[C@H](O)c4ccc(c(Cl)c4)O5)O[C@H](CO)[C@@H](O)[C@@H]3O)O[C@@H](C)[C@H]2O)cc1 [Compound 7] | 0.125 µg/mL (≈ 0.0726 µM) | 1 µg/mL (≈ 0.58 µM) | ≤0.008 µg/mL | 0.063 µg/mL (≈ 0.0366 µM) | 1 µg/mL (≈ 0.58 µM) | 0.03125 µg/mL (≈ 0.0181 µM) | ≤0.007812 µg/mL | ≤0.008 µg/mL | >128 µg/mL | >128 µg/mL | >128 µg/mL | >128 µg/mL | ≤0.008 µg/mL | 1 µg/mL (≈ 0.58 µM) | + | − | Bacterial growth was visible
